The source of these data is ChEMBL document CHEMBL1201862, “PubChem BioAssay data set” (2004).

Some targets named below: Cytochrome P450 2D6 (Homo sapiens, UniProt P10635); Cytochrome P450 3A4 (Homo sapiens, UniProt P08684); Cytochrome P450 2C9 (Homo sapiens, UniProt P11712).
In assay [1] the target is T1, Calpain-2 catalytic subunit (Sus scrofa, UniProt P43367).
T1 sequence (P43367 whole entry): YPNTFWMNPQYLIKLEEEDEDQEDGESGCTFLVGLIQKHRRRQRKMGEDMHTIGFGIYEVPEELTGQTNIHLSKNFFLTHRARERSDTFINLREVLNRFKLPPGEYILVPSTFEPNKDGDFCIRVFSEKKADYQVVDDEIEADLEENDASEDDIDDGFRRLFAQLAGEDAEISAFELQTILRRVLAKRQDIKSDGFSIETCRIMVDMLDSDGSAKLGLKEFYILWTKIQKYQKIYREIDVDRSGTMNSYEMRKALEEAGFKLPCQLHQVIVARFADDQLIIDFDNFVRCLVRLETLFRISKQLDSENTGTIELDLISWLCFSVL
Put plainly: m-calpain protease blockers, concentration series – biochemical, fluorogenic peptide substrate, dose response (AID 1420). The assay is classed as functional.

The nature of assay [2]: Luminescence Cell-Based Dose Retest to Confirm Inhibitors of Cancer Stem Cells. [Related pubchem assays (depositor defined):AID2717, AID2721]. The assay is classed as functional. To be noted: Homo sapiens.
The next assay has as its target T2, Cytochrome P450 1A2 (Homo sapiens, UniProt P05177).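 Also: PubChem cytochrome P450 panel assay, CYP1A2 panel member.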
T2 sequence (P05177 whole entry): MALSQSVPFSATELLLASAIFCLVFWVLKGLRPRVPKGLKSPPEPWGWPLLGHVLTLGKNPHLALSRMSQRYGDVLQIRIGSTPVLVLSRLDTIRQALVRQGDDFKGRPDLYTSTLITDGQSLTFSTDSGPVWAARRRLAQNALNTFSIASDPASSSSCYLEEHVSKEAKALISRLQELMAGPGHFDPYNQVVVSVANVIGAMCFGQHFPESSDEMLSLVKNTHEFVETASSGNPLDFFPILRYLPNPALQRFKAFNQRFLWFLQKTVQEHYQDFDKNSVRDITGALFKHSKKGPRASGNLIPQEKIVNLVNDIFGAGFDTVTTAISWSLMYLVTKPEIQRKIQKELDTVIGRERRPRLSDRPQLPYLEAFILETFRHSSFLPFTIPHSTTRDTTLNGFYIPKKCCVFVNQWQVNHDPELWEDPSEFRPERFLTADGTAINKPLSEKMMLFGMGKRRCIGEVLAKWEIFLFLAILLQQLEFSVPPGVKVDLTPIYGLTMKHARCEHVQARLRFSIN

Another assay deals with Cytochrome P450 2C19 (Homo sapiens, UniProt P33261). Put plainly: Cytochrome panel assay with activity outcomes. Panel member name: p450-cyp2c19 Compounds with AC50 equal or less than 10 uM are considered active. To be noted: read-out: AC50. The assay is classed as functional.
Assay [3] is described as follows: microbe, parasite or virus in culture. To be noted: Mycobacterium tuberculosis. The assay is classed as functional.
In a further assay the target is T3, Streptokinase A (Streptococcus pyogenes serotype M1, UniProt P10520).
T3 sequence (P10520 whole entry): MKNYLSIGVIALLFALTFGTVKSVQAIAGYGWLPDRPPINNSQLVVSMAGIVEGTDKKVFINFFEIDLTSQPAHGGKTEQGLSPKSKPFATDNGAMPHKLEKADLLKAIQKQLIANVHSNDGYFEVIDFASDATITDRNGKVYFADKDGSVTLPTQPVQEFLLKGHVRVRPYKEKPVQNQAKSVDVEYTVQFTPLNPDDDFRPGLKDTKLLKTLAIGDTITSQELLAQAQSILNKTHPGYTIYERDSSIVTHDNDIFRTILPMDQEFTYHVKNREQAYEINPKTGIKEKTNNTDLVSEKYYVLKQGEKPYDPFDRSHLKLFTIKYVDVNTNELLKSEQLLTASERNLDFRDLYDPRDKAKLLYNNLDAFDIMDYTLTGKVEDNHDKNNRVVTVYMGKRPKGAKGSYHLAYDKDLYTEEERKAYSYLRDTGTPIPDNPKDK
Kind of assay: viability-normalized secreted streptokinase activity reduction – plasminogen activation absorbance, OD405, dose response (AID 1914).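 Also: secreted streptokinase activity via plasminogen activation per viability signal from cell pellet.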 The assay is classed as functional, Streptococcus pyogenes M1 GAS.

Another assay relates to Streptococcus. Kind of assay: GAS UMAA2166 growth inhibition – luminescence, BacTiterGlo, counter-screen for streptokinase expression inhibitor project, dose response (AID 1915).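 Also: potency for reduction of bacterial viability or growth.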 The assay is classed as functional, organism-based. On the technique in general: A counterscreen serves to expose hits that act by an unwanted route or on another target.
The test system of assay [4] is Streptococcus sp. 'group A'. Kind of assay: Streptococcus pyogenes SK(-)GAS viability under kanamycin – luminescence, BacTiterGlo, confirmation, counter-screen for streptokinase expression inhibitor project, dose response (AID 1900). The assay is classed as functional, organism-based.
Assay [5] in a line: fluconazole-exposed Candida albicans growth modulators – fluorescence, retest, confirmation (AID 2467). The assay is classed as functional, cell-based.
Assay [6] in a line: NIH3T3 cell viability loss – ATP luminescence, mouse fibroblasts, counter-screen, dose response (AID 2010).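 Also: cells exposed to compound for about 90 hours before reading.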 The assay is classed as functional, cell-based.
The nature of assay [7]: Trypanosoma cruzi growth suppression in host cells – NIH3T3 host cells, beta-gal luminescence, confirmation (AID 2044).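 Also: intracellular parasites grown in NIH/3T3 mouse fibroblasts as host cells; luminescent beta-galactosidase reporter signal from transgenic T. cruzi replicating inside host cells; inhibitors lower the luminescence signal.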 The assay is classed as functional, cell-based.
Assay [8] is described as follows: NIH-3T3 fibroblast cytotoxicity, dose response, cytotoxicity control, cell-based, fluorescence, Alamar Blue, secondary assay (AID 2327).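 Also: NIH-3T3 mouse fibroblasts cultured with fluconazole at 8 µg/mL.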 The assay is classed as functional.
For a further assay, the system named is INS1. Kind of assay: INS-1E survival protection against cytokine death – cell-based, luminescence, retest, dose response (AID 449756).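 Also: cell death triggered by IL-1 beta plus TNF-alpha plus IFN-gamma mixture; protective hits raise ATP signal compared with cytokine alone wells.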 The settings on record: Rattus norvegicus. The assay is classed as functional.

Each structure is given as a SMILES string. Activity calls are given as the source filed them. A value given as a limit tells only on which side of the number the result lay.

Sequence of Cytochrome P450 3A4 (P08684 whole entry): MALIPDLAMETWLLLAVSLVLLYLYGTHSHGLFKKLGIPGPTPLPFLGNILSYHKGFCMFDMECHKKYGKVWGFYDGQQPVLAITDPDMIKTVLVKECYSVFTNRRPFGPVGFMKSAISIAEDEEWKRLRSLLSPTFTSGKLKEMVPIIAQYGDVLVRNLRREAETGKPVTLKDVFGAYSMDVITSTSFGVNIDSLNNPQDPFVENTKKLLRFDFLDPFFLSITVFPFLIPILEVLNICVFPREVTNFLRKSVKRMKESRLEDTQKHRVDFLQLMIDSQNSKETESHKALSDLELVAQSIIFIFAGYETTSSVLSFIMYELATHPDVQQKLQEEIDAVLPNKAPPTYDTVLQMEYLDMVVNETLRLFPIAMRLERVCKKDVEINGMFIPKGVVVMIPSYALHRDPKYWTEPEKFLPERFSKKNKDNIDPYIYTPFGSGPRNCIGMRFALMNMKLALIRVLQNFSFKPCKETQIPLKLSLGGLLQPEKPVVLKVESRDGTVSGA
Sequence of Cytochrome P450 2C19 (P33261 whole entry): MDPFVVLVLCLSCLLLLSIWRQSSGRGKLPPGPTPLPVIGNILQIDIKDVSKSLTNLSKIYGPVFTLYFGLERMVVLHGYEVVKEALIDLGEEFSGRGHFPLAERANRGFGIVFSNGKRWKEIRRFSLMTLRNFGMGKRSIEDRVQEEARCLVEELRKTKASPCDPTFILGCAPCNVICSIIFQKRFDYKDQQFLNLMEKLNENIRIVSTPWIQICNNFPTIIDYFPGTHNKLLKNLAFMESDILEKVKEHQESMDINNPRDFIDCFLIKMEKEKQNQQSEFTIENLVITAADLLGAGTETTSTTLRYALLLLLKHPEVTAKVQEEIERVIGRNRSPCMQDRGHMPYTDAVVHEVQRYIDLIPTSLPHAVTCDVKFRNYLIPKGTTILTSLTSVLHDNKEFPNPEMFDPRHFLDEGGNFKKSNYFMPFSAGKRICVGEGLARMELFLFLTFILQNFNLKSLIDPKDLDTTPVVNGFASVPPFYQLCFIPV
Sequence of Cytochrome P450 2C9 (P11712 whole entry): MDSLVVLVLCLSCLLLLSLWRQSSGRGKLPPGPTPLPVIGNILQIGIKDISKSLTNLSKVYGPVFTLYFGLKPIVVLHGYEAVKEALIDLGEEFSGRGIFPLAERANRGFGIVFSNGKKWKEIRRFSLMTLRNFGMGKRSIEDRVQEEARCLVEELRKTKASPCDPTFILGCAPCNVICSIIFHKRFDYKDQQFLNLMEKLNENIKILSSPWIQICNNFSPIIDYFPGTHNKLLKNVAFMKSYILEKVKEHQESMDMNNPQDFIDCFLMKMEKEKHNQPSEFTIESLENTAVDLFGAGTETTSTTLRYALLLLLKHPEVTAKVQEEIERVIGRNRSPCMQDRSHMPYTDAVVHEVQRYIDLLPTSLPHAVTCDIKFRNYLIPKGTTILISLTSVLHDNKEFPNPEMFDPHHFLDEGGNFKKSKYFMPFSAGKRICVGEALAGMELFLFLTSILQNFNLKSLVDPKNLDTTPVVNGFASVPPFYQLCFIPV
Sequence of Cytochrome P450 2D6 (P10635 whole entry): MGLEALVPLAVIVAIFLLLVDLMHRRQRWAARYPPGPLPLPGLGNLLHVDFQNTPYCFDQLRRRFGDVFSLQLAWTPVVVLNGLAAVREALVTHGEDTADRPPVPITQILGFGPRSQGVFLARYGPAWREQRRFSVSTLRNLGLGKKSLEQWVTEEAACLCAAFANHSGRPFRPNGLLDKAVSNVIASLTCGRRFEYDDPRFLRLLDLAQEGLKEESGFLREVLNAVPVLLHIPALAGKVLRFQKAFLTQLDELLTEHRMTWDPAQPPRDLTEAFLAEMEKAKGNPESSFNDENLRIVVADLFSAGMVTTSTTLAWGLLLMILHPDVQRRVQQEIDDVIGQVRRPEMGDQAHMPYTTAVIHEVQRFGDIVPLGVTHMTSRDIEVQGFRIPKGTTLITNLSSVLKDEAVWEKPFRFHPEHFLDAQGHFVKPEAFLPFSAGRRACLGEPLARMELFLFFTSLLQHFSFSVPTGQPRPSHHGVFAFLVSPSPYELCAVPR

Turning to `SC1=NC[C@H](Cc2ccccc2)N1CCCCC1CCCCC1`, in assay [1], the 50% inhibitory concentration (IC50) – broadly, the concentration that inhibits the measured activity by half – is 7.52 µM (not active). In [2], the half-maximal activity concentration (AC50) (as a rule, the concentration at which the activity in the assay is half-maximal) was 6.26 µM (active).
In the case of `COC(=O)C1CCN(CC(=O)Nc2sc3c(c2C#N)CCC3)CC1`, the AC50 at Cytochrome P450 1A2 is 15.8 µM (inconclusive).
Take `Cc1ccc(-c2nc3ccccc3o2)cc1NC(=O)Cc1cccs1`: the half-maximal activity concentration (AC50) on Cytochrome P450 2C19 was 15.8 µM (inconclusive); at Cytochrome P450 1A2, 2 µM (inconclusive).
In the case of `CCOC(=O)/C(=N/Nc1ccc(OC)cc1)N1CCCc2ccccc21`, the CC50 in assay [3] is > 40 µM (active).
Consider `CCc1ccccc1N(C(C)=O)c1nc(CN=C=S)cs1`, for which, in [1], the IC50 is listed as 14.5 µM (not active).
As for `NCCCCNS(=O)(=O)c1cccc2c(Cl)cccc12`, the AC50 was 15.8 µM (inconclusive) at Cytochrome P450 1A2, 39.8 µM (inconclusive) at Cytochrome P450 2D6, 25.1 µM (inconclusive) at Cytochrome P450 3A4 and 12.6 µM (inconclusive) on Cytochrome P450 2C9.
`CC(C)C[C@H](NC(=O)c1[nH]cnc1C(=O)N[C@H](C)c1ccccc1)C(=O)OC(C)(C)C`: the EC50 (usually the midpoint of the concentration-response curve) on Streptokinase A was > 150 µM (not active); in the assay with Streptococcus it was 9.3 µM (active); in [4], 3.86 µM (active). The IC50 in assay [1] was 11.7 µM (not active).
As to `Cc1cccc(N2CCN(CCCNC(=O)c3ccc(NC(=O)C4=CSCCO4)cc3)CC2C)c1` (centres undefined), in assay [3], the CC50 was > 40 µM (active).
Regarding `O=C(Nc1cccc(F)c1)N1CCCC2(CCN(C(=O)Oc3ccccc3)CC2)C1`, the AC50 at Cytochrome P450 2C19 was 25.1 µM (inconclusive); at Cytochrome P450 1A2, 10 µM (inconclusive); at Cytochrome P450 2C9, 39.8 µM (inconclusive).
Consider `CCc1ccc(NC(=S)/N=C(\N)Nc2nc(C)c3cc(CC)ccc3n2)cc1`, for which the CC50 in assay [3] is 17.4 µM (active).
Regarding `O=C(O)C1CC=CCC1C(=O)N1CCN(c2nc(-c3ccccc3Cl)c3cc(Br)ccc3n2)CC1` (centres undefined), the CC50 in assay [3] is 38.3 µM (active).
`CCc1ccc2oc(-c3ccc(OC)cc3)cc(=Nc3c(C)n(C)n(-c4ccccc4)c3=O)c2c1`: the EC50 is > 38 µM (not active) in assay [5], > 60 µM (not active) in assay [6], 1.94 µM (active) in assay [7] and > 160 µM (inactive) in assay [8]. Moreover, in assay [3], the CC50 is 27.6 µM (active).
In the case of `CCOc1ccc(/C=N/Nc2ccc(Cl)nn2)c(O)c1`, in the assay with INS1, the AC50 was 1.77 µM (active). Also, in assay [3], the CC50 is 18.4 µM (active).
For `CCOC(=O)c1ccccc1NC(=O)COc1coc(CN2CCc3ccccc32)cc1=O`, in assay [3], the CC50 is > 40 µM (active).
Take `CCOC(=O)N1CCC2(CC1)C(C#N)=C(N)Oc1[nH]nc(CSc3ccc(C)cc3)c12`: in assay [1], the IC50 is reported as 3.34 µM (not active).
As to `c1ccc2c(c1)-c1ccccc1C2N1C[C@H]2CC[C@H](CC2)C1`, the AC50 at Cytochrome P450 1A2 was 0.501 µM (inconclusive).
As to `COc1cc(/C=N/NC(=O)COc2cccc(F)c2)ccc1OS(=O)(=O)c1ccc(C)cc1`, the IC50 in assay [1] is 2.21 µM (not active).
Consider `Cc1ccc(CNC(=O)Cn2cncn2)cc1`, for which the half-maximal activity concentration (AC50) on Cytochrome P450 1A2 is 39.8 µM (inconclusive); on Cytochrome P450 2D6, 17.8 µM (inconclusive); on Cytochrome P450 3A4 it was 14.1 µM (inconclusive).
Consider `c1ccc(CNc2nc(-c3cccnc3)nc3ccccc23)cc1`, for which the AC50 at Cytochrome P450 2C19 is 15.8 µM (active); on Cytochrome P450 1A2 it was 0.398 µM (active); on Cytochrome P450 2D6, 15.8 µM (active).
On to `N=C(N)SCc1cc(Cl)cc(Cl)c1O`, for which the AC50 at Cytochrome P450 1A2 is 5.01 µM (inconclusive).
On to `C=C(C)CNC(=S)N/N=C/c1ccc(NC(C)=O)cc1`, for which the IC50 in [1] is 13.5 µM (not active).
Still for that read-out and setting: next, `NC(=O)CC(NC(=O)Cc1ccc(Br)cc1)c1ccc(NCC2CC2)c([N+](=O)[O-])c1` (centres undefined): 14.6 µM (not active).
Turning to `CC(=O)NCc1c(Cl)cccc1-n1cccc1`, the AC50 on Cytochrome P450 2C19 is 11.2 µM (inconclusive); at Cytochrome P450 1A2 it was 15.8 µM (inconclusive); at Cytochrome P450 3A4 it was 39.8 µM (inconclusive); at Cytochrome P450 2C9, 28.2 µM (inconclusive).
Take `FC(F)(F)c1ccccc1-c1cncnc1NCCN1CCOCC1`: the AC50 on Cytochrome P450 2C19 was 20 µM (inconclusive); at Cytochrome P450 1A2, 2.51 µM (inconclusive); at Cytochrome P450 2D6, 15.8 µM (inconclusive).
Consider `O=C(c1ccc(Cl)cc1)c1oc2ccccc2c1CS(=O)(=O)c1ccccc1`, for which the IC50 in assay [1] is reported as > 50 µM (not active).
